The source of these data is ChEMBL document CHEMBL1201862, “PubChem BioAssay data set” (2004).

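Where inhibition never reached the appropriate level, the endpoint shown equals the highest concentration tested. Otherwise, values were interpolated linearly from a five-concentration, 48-hour dose response in 96-well plates. The concentration for 50% growth inhibition is given as GI50.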 Activity calls are given as the source filed them. Rule as the data show it: active = GI50 up to about 1.1 µM and inactive = higher. A value given as a limit tells only on which side of the number the result lay.

Among the test systems are MDA-MB-231; K562; MDA-MB-435; SK-MEL-5; COLO 205; T47D; IGROV-1; NCI-H460; OVCAR-4; MDA-N; CAKI-1; SK-MEL-2; SNB-75; UACC-257; DU-145; 786-0; NCI-H522; BT-549; DLD-1.
What all share (test): NCI anticancer screen, dose series, 48 h

For `CCOC(=O)c1csc(NC(=O)C(C)N2CCOCC2)n1` (configuration not stated), the GI50 with MDA-MB-231, in the experiment on K562, in the experiment with MDA-MB-435, in the experiment on SK-MEL-5, with COLO 205 and with T47D was > 100 µM (inactive) throughout. For the same compound, the GI50 in the experiment with IGROV-1, with NCI-H460, in the experiment on OVCAR-4, in the experiment with MDA-N, in the experiment on CAKI-1 and in the experiment on SK-MEL-2 was > 100 µM (inactive) throughout. The GI50 with SNB-75, with UACC-257 and in the experiment on DU-145 was > 100 µM (inactive) in each case.
Regarding `CSc1ncc2c(n1)-c1ccccc1OC2NC1CC1` (configuration not stated), the GI50 in the experiment on 786-0 was > 100 µM (inactive); in the experiment on MDA-MB-231 it was > 100 µM (inactive); in the experiment on K562, 54 µM (inactive); with MDA-MB-435 it was > 100 µM (inactive); in the experiment on SK-MEL-5 it was 78.3 µM (inactive); in the experiment on COLO 205 it was > 100 µM (inactive). Also, the GI50 in the experiment on T47D is 28.6 µM (inactive); in the experiment with IGROV-1, 49 µM (inactive); in the experiment with NCI-H460 it was 81.8 µM (inactive); in the experiment on OVCAR-4, 30.6 µM (inactive); in the experiment with MDA-N, > 100 µM (inactive); in the experiment with NCI-H522, 24.8 µM (inactive). Besides, the GI50 in the experiment on CAKI-1 was 29.6 µM (inactive); in the experiment with BT-549, 38 µM (inactive); in the experiment on SK-MEL-2, > 100 µM (inactive); with SNB-75, 59 µM (inactive); in the experiment on UACC-257 it was > 100 µM (inactive); in the experiment with DU-145 it was 63 µM (inactive).
On to `COc1ccc(CNc2nc3cc(C(F)(F)F)ccc3nc2C(=O)O)cc1OC`, for which the GI50 was 32.9 µM (inactive) with 786-0; 32.5 µM (inactive) in the experiment on MDA-MB-231; 24.4 µM (inactive) with K562; 26.7 µM (inactive) in the experiment on MDA-MB-435; 20.8 µM (inactive) in the experiment with SK-MEL-5; 22.5 µM (inactive) with COLO 205. Besides, the GI50 with T47D is 37.8 µM (inactive); in the experiment on IGROV-1 it was 12.2 µM (inactive); with NCI-H460 it was 36.6 µM (inactive); with OVCAR-4 it was 48.2 µM (inactive); in the experiment on MDA-N, 36.5 µM (inactive); with CAKI-1, 28.6 µM (inactive). Besides, the GI50 with BT-549 was 41.2 µM (inactive); in the experiment with SK-MEL-2 it was 23.2 µM (inactive); in the experiment with SNB-75, 47.9 µM (inactive); with UACC-257 it was 34.2 µM (inactive); in the experiment on DU-145, 41.4 µM (inactive).
As for `CC(=O)N1C(=O)/C(=C\C(=O)c2ccc(Cl)cc2)c2ccccc21`, the GI50 in the experiment on 786-0 was 4.27 µM (inactive); in the experiment on MDA-MB-231 it was 13.9 µM (inactive); with K562, 12 µM (inactive); in the experiment on MDA-MB-435 it was 14.1 µM (inactive); with SK-MEL-5, 19.2 µM (inactive); in the experiment on COLO 205 it was 9.44 µM (inactive). Further, the GI50 in the experiment on T47D was 16.5 µM (inactive); in the experiment on IGROV-1, 16.7 µM (inactive); in the experiment with NCI-H460, 15 µM (inactive); in the experiment on OVCAR-4, 16.7 µM (inactive); in the experiment on MDA-N, 14.4 µM (inactive); with NCI-H522, 10.9 µM (inactive). For the same compound, the GI50 in the experiment on CAKI-1 is 13.3 µM (inactive); with BT-549 it was 4.19 µM (inactive); in the experiment on SK-MEL-2, 18.5 µM (inactive); in the experiment on SNB-75 it was 17.7 µM (inactive); with UACC-257 it was 14.9 µM (inactive); with DU-145 it was 17.1 µM (inactive).
Regarding `CC(=O)O[C@H]1CC[C@@]2(C)C(=CC[C@H]3[C@@H]4C[C@H](N5CCN(C)CC5)[C@H](OC(C)=O)[C@@]4(C)CC[C@@H]32)C1`, the GI50 was 19.2 µM (inactive) in the experiment on 786-0; 16.7 µM (inactive) in the experiment with MDA-MB-231; 1.91 µM (inactive) with K562; 5.08 µM (inactive) in the experiment with MDA-MB-435; 3.53 µM (inactive) in the experiment on SK-MEL-5; 17.1 µM (inactive) in the experiment on COLO 205. Also, the GI50 in the experiment with T47D is 17.8 µM (inactive); in the experiment with IGROV-1 it was 19 µM (inactive); in the experiment on NCI-H460 it was 21.6 µM (inactive); in the experiment with OVCAR-4, 17.6 µM (inactive); in the experiment with MDA-N, 12.1 µM (inactive); in the experiment with NCI-H522, 18.8 µM (inactive). Besides, the GI50 was 33.3 µM (inactive) with CAKI-1; 17.8 µM (inactive) with BT-549; 18 µM (inactive) with SK-MEL-2; 24.4 µM (inactive) in the experiment on SNB-75; 6.17 µM (inactive) with UACC-257; > 100 µM (inactive) in the experiment with DU-145.
For the compound `Cc1cc(C)c2c(c1)CC1(Cc3c(C)ccc(C)c3C1=O)C2=O` (configuration not stated), the GI50 in the experiment on MDA-MB-231, with K562, with MDA-MB-435, with SK-MEL-5, with COLO 205 and with T47D was > 100 µM (inactive) each time. Moreover, the GI50 with IGROV-1, in the experiment with NCI-H460, in the experiment on OVCAR-4, in the experiment on MDA-N, in the experiment on NCI-H522 and with CAKI-1 was > 100 µM (inactive) throughout. The GI50 in the experiment with BT-549, in the experiment with SK-MEL-2, with SNB-75, with UACC-257 and in the experiment with DU-145 was > 100 µM (inactive) each time.
For `CN(C)CCCNC(=O)c1c(-c2cccnc2)cnc2ccccc12`, the GI50 in the experiment on 786-0 was > 100 µM (inactive); with K562, > 100 µM (inactive); in the experiment with SK-MEL-5, 61.9 µM (inactive); with COLO 205, > 100 µM (inactive); in the experiment with IGROV-1 it was > 100 µM (inactive); in the experiment on NCI-H460, > 100 µM (inactive). In addition, the GI50 with OVCAR-4, in the experiment on MDA-N, in the experiment with NCI-H522, in the experiment with CAKI-1, with BT-549 and in the experiment on SK-MEL-2 was > 100 µM (inactive) each time. For the same compound, the results for the GI50 in the experiment on SNB-75, with UACC-257 and in the experiment on DU-145 were 14.9 µM (inactive), > 100 µM (inactive) and > 100 µM (inactive), respectively.
As to `CC(C)(CO)NC(=O)c1cccc(C(=O)NC(C)(C)CO)c1Br`, the GI50 in the experiment with 786-0, with MDA-MB-231, with K562, with MDA-MB-435, in the experiment on SK-MEL-5 and with COLO 205 was > 100 µM (inactive) throughout. Further, the GI50 with T47D, in the experiment on IGROV-1, with NCI-H460, in the experiment with OVCAR-4, with CAKI-1 and in the experiment on BT-549 was > 100 µM (inactive) in each case. The GI50 in the experiment on SK-MEL-2 is > 100 µM (inactive); in the experiment with SNB-75, 32.3 µM (inactive); with UACC-257 it was > 100 µM (inactive); in the experiment with DU-145 it was > 100 µM (inactive).
For `COC(C/C(=C/CO[Si](C(C)C)(C(C)C)C(C)C)C(=O)N(C(=O)OC(C)(C)C)c1ccccc1I)OC`, the GI50 with 786-0 was 28.4 µM (inactive); in the experiment on MDA-MB-231, > 10 µM (inactive); in the experiment on K562, > 100 µM (inactive); in the experiment with MDA-MB-435, 32.5 µM (inactive); with SK-MEL-5, 56.2 µM (inactive); in the experiment with COLO 205, 67.5 µM (inactive). Besides, the GI50 in the experiment on T47D is 36.8 µM (inactive); with IGROV-1, 0.0262 µM (active); with NCI-H460, 31.8 µM (inactive); with OVCAR-4 it was 44.6 µM (inactive); in the experiment with MDA-N, 26.9 µM (inactive); in the experiment with NCI-H522, 2.77 µM (inactive). In addition, the GI50 is 33.2 µM (inactive) in the experiment with CAKI-1; 17.8 µM (inactive) in the experiment on SK-MEL-2; > 100 µM (inactive) with SNB-75; 38.8 µM (inactive) with UACC-257; > 100 µM (inactive) with DU-145.
As for `CC(C)c1ccccc1SC1CC(=O)CC(Sc2ccccc2C(C)C)C12O[C@H](c1ccccc1)[C@@H](c1ccccc1)O2` (some centres not stated), the GI50 was 18.1 µM (inactive) in the experiment with 786-0; 34.8 µM (inactive) in the experiment with MDA-MB-231; 22.6 µM (inactive) with MDA-MB-435; 35.6 µM (inactive) with SK-MEL-5; 71.6 µM (inactive) in the experiment on COLO 205; 28.6 µM (inactive) in the experiment on T47D. The GI50 in the experiment with IGROV-1 is 34.1 µM (inactive); with NCI-H460, > 100 µM (inactive); in the experiment with OVCAR-4, 61.9 µM (inactive); with MDA-N, 20.9 µM (inactive); in the experiment on CAKI-1, 26.3 µM (inactive); in the experiment with BT-549, 51.1 µM (inactive). For the same compound, the values for the GI50 with SK-MEL-2, in the experiment with UACC-257 and in the experiment with DU-145 were 35.6 µM (inactive), > 100 µM (inactive) and 76.2 µM (inactive), respectively.
`CCC1CN2CCc3cc(OC)c(OC)cc3C2CC1CC1c2cc(OC)c(OC)cc2CCN1C(=O)C(N)Cc1ccccc1.[O-][Cl+3]([O-])([O-])O` (configuration not stated): the GI50 is 0.238 µM (active) with K562; 2.12 µM (inactive) with SK-MEL-5; 3.38 µM (inactive) in the experiment with DLD-1; 0.538 µM (active) with NCI-H460; 0.385 µM (active) in the experiment on NCI-H522; 1.95 µM (inactive) in the experiment with CAKI-1. The GI50 with SK-MEL-2 was 2.23 µM (inactive); in the experiment with SNB-75 it was 2.94 µM (inactive); in the experiment on UACC-257 it was 2.35 µM (inactive).
Turning to `CNC(=S)N/N=C(/C)CCC/C(C)=N/NC(=S)NC`, the GI50 in the experiment with MDA-MB-231 was > 28.6 µM (inactive); in the experiment on K562 it was 0.408 µM (active); with MDA-MB-435 it was > 71.8 µM (inactive); in the experiment on SK-MEL-5 it was 16.4 µM (inactive); in the experiment with COLO 205 it was 0.308 µM (active); in the experiment on T47D it was 1.23 µM (inactive). For the same compound, the GI50 with IGROV-1 is 3.02 µM (inactive); in the experiment on NCI-H460 it was > 56.9 µM (inactive); in the experiment on OVCAR-4, 1.69 µM (inactive); with MDA-N, > 100 µM (inactive); with NCI-H522, 0.728 µM (active); in the experiment with CAKI-1 it was > 100 µM (inactive). Also, the GI50 was > 100 µM (inactive) with BT-549; > 100 µM (inactive) in the experiment with SK-MEL-2; 29 µM (inactive) in the experiment on SNB-75; > 100 µM (inactive) with UACC-257; > 68.5 µM (inactive) in the experiment on DU-145.
